Measured values taken from patent publication US8344017B2, “Anti-hepatitis C virus agents and anti-HIV agents” (Mitsubishi Corporation, priority 2003, dated 2013).
pIC50: −log10 of the molar value. In brackets after ≈: the same amount, converted by molar mass. Like-named read-outs stand apart in the source and are kept apart here.

Assays:
[1] = system: E. hirae ATCC 8043; test: Antimicrobial activity, MIC; format: cell-based
Experimental: (§1) Each fullerene derivative or the like was dissolved in DMSO, then added to the culture medium of bacteria. Vancomycin is an antimicrobial agent used for drug resistant bacteria (Methicillin resistant strains, MRSA) which has been in trouble now. […] Among the regioisomers of the compound 2, 2t-2, 2t-3 and 2t-4, differences in the effects are observed in some degree depending on bacteria, however, there are no significant differences, and they have an antimicrobial activity substantially equivalent to that of vancomycin, and are also effective for MRSA. Furthermore, worthy of special mention is the fact that these fullerene derivatives and the like show an effective antimicrobial activity against also vancomycin-resistant bacteria (VRE). […] At present, vancomycin-resistant bacteria began to emerge, therefore, the compound 2 is expected to exert an effect on these.

[2] = system: S. aureus 209P JC-1; test: Antimicrobial activity, MIC; format: cell-based
Experimental: as §1

[3] = system: S. aureus M126 (MRSA); test: Antimicrobial activity, MIC; format: cell-based
Experimental: as §1

[4] = system: S. aureus M133 (MRSA); test: Antimicrobial activity, MIC; format: cell-based
Experimental: as §1

[5] = system: S. eidermidis ATCC 14990; test: Antimicrobial activity, MIC; format: cell-based
Experimental: as §1

[6] = biological target: T1, RNA polymerase of hepatitis C virus (Hepatitis C virus genotype 1a, UniProt P27958); test: RNA polymerase activity of hepatitis C virus, inhibitory activity; format: biochemical
T1 construct: measuring RNA polymerase activity of hepatitis C virus
T1 sequence (P27958 2421-3011): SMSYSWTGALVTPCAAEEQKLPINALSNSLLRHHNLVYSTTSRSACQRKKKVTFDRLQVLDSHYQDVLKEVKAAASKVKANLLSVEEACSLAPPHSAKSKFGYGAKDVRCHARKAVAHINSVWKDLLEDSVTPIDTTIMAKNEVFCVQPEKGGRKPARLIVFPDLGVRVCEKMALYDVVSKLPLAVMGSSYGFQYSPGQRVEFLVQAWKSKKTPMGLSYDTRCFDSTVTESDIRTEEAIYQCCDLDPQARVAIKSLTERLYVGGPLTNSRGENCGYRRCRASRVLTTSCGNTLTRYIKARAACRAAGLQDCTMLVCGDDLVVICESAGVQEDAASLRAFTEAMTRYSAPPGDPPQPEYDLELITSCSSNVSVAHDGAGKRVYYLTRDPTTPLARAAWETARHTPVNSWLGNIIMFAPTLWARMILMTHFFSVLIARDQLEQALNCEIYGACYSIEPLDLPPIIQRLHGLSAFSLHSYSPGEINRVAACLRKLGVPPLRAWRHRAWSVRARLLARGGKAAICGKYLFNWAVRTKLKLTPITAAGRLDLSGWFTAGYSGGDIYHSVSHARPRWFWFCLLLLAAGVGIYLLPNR
Description: (1) By using an experimental system for measuring RNA polymerase activity of hepatitis C virus (D. Dhanak et al., J. Biol. Chem., 277, 38322-[…] (2002)), its inhibitory activity was examined.
With regard to the foregoing compound 2, major regioisomers were separated and purified, however, with regard to others, bioactivities were investigated using mixtures.

[7] = biological target: HIV reverse transcriptase (Human immunodeficiency virus type 1 group M subtype B, UniProt P03366); test: HIV reverse transcriptase inhibitory activity (32P-dTTP incorporation); format: biochemical; conditions: 1 hour at 37° C., pH 8.3
Experimental: The experiment was performed as follows in 50 mM Tris-HCl buffer (pH 8.3); to 10 μL of a reaction solution which had been prepared so as to contain 30 mM NaCl, 10 mM MgCl, 2.5 mM DTT, 1.25 μg/mL poly(rA). oligo(dT) 12-18, 250 nM dTTP, ^32P-dTTP (800 μCi/mmol), 1 μl of a sample dissolved in DMSO, 1 μl of HIV reverse transcriptase (0.01 U/mL) were added, and the total volume was made up to 20 μl. After the solution was incubated for 1 hour at 37° C., 10 μl of the reaction solution was placed on a Whatman DE81 filter, which was washed three times with Na2HPO4, once with 70% ethanol and once with ethanol. The dried filter was placed in a vial, and the radioactivity was counted by the liquid scintillation measurement method, which was assigned to the HIV reverse transcriptase activity.

[8] = system: E. faecalis NCTC 12201 (VRE); test: Antimicrobial activity, MIC; format: cell-based
Experimental: as §1

[9] = system: E. faecalis W-73; test: Antimicrobial activity, MIC; format: cell-based
Experimental: as §1

[10] = system: E. faecium vanA (VRE); test: Antimicrobial activity, MIC; format: cell-based
Experimental: as §1

For `CN[C@H](CC(C)C)C(=O)N[C@H]1C(=O)N[C@@H](CC(N)=O)C(=O)N[C@H]2C(=O)N[C@H]3C(=O)N[C@H](C(=O)N[C@H](C(=O)O)c4cc(O)cc(O)c4-c4cc3ccc4O)[C@H](O)c3ccc(c(Cl)c3)Oc3cc2cc(c3O[C@@H]2O[C@H](CO)[C@@H](O)[C@H](O)[C@H]2O[C@H]2C[C@](C)(N)[C@H](O)[C@H](C)O2)Oc2ccc(cc2Cl)[C@H]1O` [VCM, vancomycin, reference compound], the MIC ([1]; Enterococcus hirae, ATCC8043) was 3120 µg/mL (≈ 2150 µM), the MIC ([2]; Staphylococcus aureus, 209P) was 1560 µg/mL (≈ 1080 µM) and the MIC ([3]; Staphylococcus aureus, MRSA) was 1560 µg/mL (≈ 1080 µM). For the same compound, the MIC ([4]; Staphylococcus aureus, MRSA) was 1560 µg/mL (≈ 1080 µM) and the MIC [5] was 3120 µg/mL (≈ 2150 µM).
`O=C(O)CN1C(C(=O)O)C23c4c5c6c7c8c9c(c%10c%11c2c2c4c4c%12c5c5c6c6c8c8c%13c9c9c%10c%10c%11c%11c2c2c4c4c%12c%12c5c5c6c8c6c8c%13c9c9c%10c%10c%11c2c2c4c4c%12c5c6c5c8c9c%10c2c45)C73C1C(=O)O` (stereo not shown) [compound 8] gave a pIC50 [6] of 5.70 and a pIC50 [7] of 7.54.
`C[N+]1(C)CC23c4c5c6c7c8c9c(c%10c%11c2c2c4c4c%12c5c5c6c6c8c8c%13c9c9c%10c%10c%11c%11c2c2c4c4c%12c%12c5c5c6c8c6c8c%13c9c9c%10c%10c%11c2c2c4c4c%12c5c6c5c8c9c%10c2c45)C73C1` (stereo not shown) [compound 9] was tested, and the pIC50 [7] was 5.80.
Compound `O=C(O)CN1CC23c4c5c6c7c8c9c(c%10c%11c2c2c4c4c%12c5c5c6c6c8c8c%13c9c9c%10c%10c%11c%11c2c2c4c4c%12c%12c5c5c6c8c6c8c%13c9c9c%10c%10c%11c2c2c4c4c%12c5c6c5c8c9c%10c2c45)C73C1C(=O)O` (stereo not shown) [compound 10] has a pIC50 [7] of 6.00.
With `CN1CC23c4c5c6c7c8c9c(c%10c%11c2c2c4c4c%12c5c5c6c6c8c8c%13c9c9c%10c%10c%11c%11c2c2c4c4c%12c%12c5c5c6c8c6c8c%13c9c9c%10c%10c%11c2c2c4c4c%12c5c6c5c8c9c%10c2c45)C73C1c1ccc[n+](C)c1` (stereo not shown) [compound 12] the pIC50 [7] was 5.28.
“C60-bis(N,N-dimethyl-2-hexylpyyrolidinium iodido) [compound 4]” showed a pIC50 [7] of 6.10, an MIC [8] of 25000 µg/mL and an MIC [9] of 50000 µg/mL. It also gave an MIC [10] of 12500 µg/mL, an MIC ([1]; E. hirae ATCC 8043) of 25000 µg/mL and an MIC ([2]; S. aureus 209P JC-1) of 6250 µg/mL. For the same compound, the MIC ([3]; S. aureus M126 (MRSA)) was 12500 µg/mL, the MIC ([4]; S. aureus M133 (MRSA)) was 12500 µg/mL and the MIC ([5]; S. eidermidis ATCC 14990) was 12500 µg/mL.
